From US9840481B2, “Allosteric modulators of nicotinic acetylcholine receptors” (MERCK SHARP & DOHME CORP., priority 2016, dated 2017)
Read-outs that look alike come from different tables or passages of the source.

Target: T1, human α7 nAChR stably expressed in a HEK cell line (with human RIC-3) (Homo sapiens, UniProt P36544)
T1 construct: PrecisION hnAChR α7/RIC-3
Assay: Automated patch-clamp electrophysiology functional assay (Assay A), IonFlux HT, whole-cell population patch
Assay type: cell-based
Summary of the method: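 Whole-cell population patch clamp (IonFlux HT) used HEK cells stably co-expressing human α7 and RIC-3, held at −60 mV at room temperature. Compounds were applied alone (agonism) or with 40 μM acetylcholine (potentiation), three ascending concentrations per recording. Currents were quantified relative to a 40 μM acetylcholine reference response, giving EC50.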

[1] = automated patch-clamp electrophysiology functional assay (Assay A), potency class by EC50, read-out: α7 nAChR Potency
[2] = electrophysiology EC50, HEK cells expressing human α7/RIC-3, 40 μM acetylcholine, holding potential −60 mV, room temperature, read-out: α7 nAChR EC50

T1 sequence (P36544 23-502): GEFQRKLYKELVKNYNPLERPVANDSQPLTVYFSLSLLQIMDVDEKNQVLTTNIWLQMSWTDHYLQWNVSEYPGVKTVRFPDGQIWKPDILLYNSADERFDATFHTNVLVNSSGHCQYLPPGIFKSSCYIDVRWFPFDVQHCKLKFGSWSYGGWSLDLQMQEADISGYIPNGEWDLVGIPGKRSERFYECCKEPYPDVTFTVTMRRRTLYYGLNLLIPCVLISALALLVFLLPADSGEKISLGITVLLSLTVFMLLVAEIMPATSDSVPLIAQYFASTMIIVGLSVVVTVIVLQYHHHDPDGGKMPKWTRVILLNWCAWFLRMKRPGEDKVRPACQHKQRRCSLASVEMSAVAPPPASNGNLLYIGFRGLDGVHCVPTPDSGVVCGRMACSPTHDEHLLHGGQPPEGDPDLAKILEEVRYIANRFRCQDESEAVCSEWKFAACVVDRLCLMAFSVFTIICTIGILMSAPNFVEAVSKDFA

| Compound | EC50 [1] [nM] | EC50 [2] [nM] |
| --- | --- | --- |
| CC1(C)[C@@H](c2ccc(S(N)(=O)=O)cc2)[C@@H]1c1nc(C2CCCCC2)no1 [Example D3] | 100 to 500 | 150 |
| NS(=O)(=O)c1ccc([C@@H]2[C@@H](c3nc(-c4ccccc4)no3)C2(F)F)cc1 [Example A9] | 500 to 5000 |  |
| CC1(C)[C@@H](c2ccc(S(N)(=O)=O)cc2)[C@@H]1c1noc(-c2cccnc2C(F)(F)F)n1 [Example I21] | 500 to 5000 |  |
| CC1(C)[C@H](c2ccc(S(N)(=O)=O)cc2)[C@H]1c1nc(-c2cccc(F)c2)no1 [Example A10] | 500 to 5000 | 1100 |
| CC(C)c1noc([C@H]2[C@H](c3ccc(S(N)(=O)=O)cc3)C2(F)F)n1 [Example D1] | 100 to 500 | 120 |
| CC(C)(C)c1cnc([C@@H]2C[C@H]2c2ccc(S(N)(=O)=O)cc2)o1 [Example K4] | 500 to 5000 |  |
| CCc1coc([C@@H]2C[C@H]2c2ccc(S(N)(=O)=O)cc2)n1 [Example K6] | 500 to 5000 |  |
| CC1(C)[C@@H](c2ccc(S(N)(=O)=O)cc2)[C@@H]1c1noc(-c2c[nH]c(C3CC3)n2)n1 [Example I8] | 500 to 5000 | 4400 |
| CC1(C)[C@@H](c2ccc(S(N)(=O)=O)cc2)[C@@H]1c1nnc(CC2CC2)o1 [Example G11] | 500 to 5000 | 4500 |
| NS(=O)(=O)c1ccc([C@@H]2C[C@H]2c2nc(-c3ccccc3C(F)(F)F)no2)cc1 [Example C6] | 500 to 5000 |  |
| CC1C(c2ccc(S(N)(=O)=O)cc2)C1c1nc(-c2ccccc2)no1 (single isomer, unassigned) [Example M2] | 500 to 5000 | 1700 |
| CC1(C)[C@@H](c2ccc(S(N)(=O)=O)cc2)[C@@H]1c1noc(-c2cccc(OC(F)(F)C(F)F)c2)n1 [Example H14] | 100 to 500 |  |
| CC(C)(C)c1noc([C@@H]2[C@@H](c3ccc(S(N)(=O)=O)cc3)C2(F)F)n1 [Example B17] | 500 to 5000 | 850 |
| CC(C)c1noc([C@@H]2[C@@H](c3ccc(S(N)(=O)=O)cc3)C2(F)F)n1 [Example 7, 4-{(1S,3S)-2,2-Difluoro-3-[3-(propan-2-yl)-1,2,4-oxadiazol-5-yl]cyclopropyl}benzenesulfonamide] | 500 to 5000 | 910 |
| CC(=O)N1CCC(c2noc([C@@H]3[C@@H](c4ccc(S(N)(=O)=O)cc4)C3(C)C)n2)CC1 [Example B16] | 500 to 5000 | 2200 |
| Cc1ccc(F)cc1-c1noc([C@H]2[C@H](c3ccc(S(N)(=O)=O)cc3)C2(C)C)n1 [Example 1, 4-((1S,3S)-3-(3-(5-Fluoro-2-methylphenyl)-1,2,4-oxadiazol-5-yl)-2,2-dimethylcyclopropyl)-benzenesulfonamide] | 500 to 5000 | 4100 |
| CC1(C)[C@@H](c2ccc(S(N)(=O)=O)cc2)[C@@H]1c1noc(C2CCCCC23CC3)n1 (some centres unmarked) [Example I27] | 100 to 500 |  |
| CC1(C)[C@@H](c2ccc(S(N)(=O)=O)cc2)[C@@H]1c1noc(-c2cc(F)cc(F)c2F)n1 [Example H10] | 100 to 500 | 240 |
| NS(=O)(=O)c1ccc([C@@H]2C[C@H]2c2noc(C3(C(F)(F)F)CC3)n2)cc1 [Example I35] | 500 to 5000 | 690 |
| CC1(C)[C@H](c2ccc(S(N)(=O)=O)cc2)[C@H]1c1nnc(-c2ccccc2)s1 [Example F4] | 100 to 500 | 420 |
| CC1(C)[C@@H](c2ccc(S(N)(=O)=O)cc2)[C@@H]1c1noc(-c2ccc(F)cc2Cl)n1 [Example H2] | 500 to 5000 | 510 |
| NS(=O)(=O)c1ccc([C@@H]2C[C@H]2c2nc(Cc3ccc(F)cc3F)no2)cc1 [Example D26] | 500 to 5000 | 810 |

| Compound | EC50 [1] [nM] | EC50 [2] [nM] |
| --- | --- | --- |
| COc1ccc(Cl)cc1-c1noc([C@H]2[C@H](c3ccc(S(N)(=O)=O)cc3)C2(C)C)n1 [Example C1] | 5000 to 50000 |  |
| NS(=O)(=O)c1ccc(C2CC2c2nc(-c3cccc(F)c3)ns2)cc1 (single isomer, unassigned) [Example M4] | 100 to 500 | 210 |
| NS(=O)(=O)c1ccc([C@@H]2C[C@H]2c2nc(-c3c(F)cccc3F)no2)cc1 [Example C9] | 500 to 5000 |  |
| NS(=O)(=O)c1ccc([C@@H]2C[C@H]2c2nc(-c3cccc(Br)c3)no2)cc1 [Example C10] | 500 to 5000 |  |
| CC1(C)[C@@H](c2ccc(S(N)(=O)=O)cc2)[C@@H]1c1ncc(C2CCCC2)s1 [Example K16] | 500 to 5000 |  |
| CC1(C)[C@@H](c2ccc(S(N)(=O)=O)cc2)[C@@H]1c1csc(C2CCCC2)n1 [Example L15] | 100 to 500 | 370 |
| NS(=O)(=O)c1ccc([C@@H]2C[C@H]2c2csc(-c3ccccc3)n2)cc1 [Example 25, 4-[(1R,2R)-2-(2-Phenyl-1,3-thiazol-4-yl)cyclopropyl]benzenesulfonamide] | 500 to 5000 | 980 |
| CC1(C)[C@@H](c2ccc(S(N)(=O)=O)cc2)[C@@H]1c1noc(C2CCCC2)n1 [Example I26] | ≤ 100 | 64 |
| CC1(C)[C@@H](c2ccc(S(N)(=O)=O)cc2)[C@@H]1c1noc(-c2cc(C(F)(F)F)c3ccccc3n2)n1 [Example I13] | 500 to 5000 | 3100 |
| CC1(C)[C@@H](c2ccc(S(N)(=O)=O)cc2)[C@@H]1c1nc(-c2ccc(F)cc2F)no1 [Example C12] | 500 to 5000 |  |
| CC1(C)[C@H](c2ccc(S(N)(=O)=O)cc2)[C@H]1c1ncc(C2CCCC2)s1 [Example J9] | 500 to 5000 |  |
| CC1(C)[C@H](c2ccc(S(N)(=O)=O)cc2)[C@H]1c1nc(C2CCCC2)no1 [Example B9] | 500 to 5000 | 1000 |
| CC1(C)[C@H](c2ccc(S(N)(=O)=O)cc2)[C@H]1c1nc(C2CCCCC2)no1 [Example 20, 4-((1R,3R)-3-(3-Cyclohexyl-1,2,4-oxadiazol-5-yl)-2,2-dimethylcyclopropyl)benzenesulfonamide] | 500 to 5000 | 660 |
| CC1(C)[C@@H](c2ccc(S(N)(=O)=O)cc2)[C@@H]1c1ncc(-c2ccccc2)s1 [Example 17, 4-[(1S,3S)-2,2-Dimethyl-3-(5-phenyl-1,3-thiazol-2-yl)cyclopropyl]benzenesulfonamide] | 500 to 5000 | 2000 |
| CC1(C)[C@H](c2ccc(S(N)(=O)=O)cc2)[C@H]1c1cc(-c2ccccc2)no1 [Example 11, 4-[(1R,3R)-2,2-Dimethyl-3-(3-phenylisoxazol-5-yl)cyclopropyl]benzenesulfonamide] | 100 to 500 | 460 |
| CC1(C)[C@@H](c2ccc(S(N)(=O)=O)cc2)[C@@H]1c1nnc(-c2cccc(C(F)(F)F)c2)o1 [Example G2] | 500 to 5000 |  |
| CC(C)c1noc([C@H]2[C@H](c3ccc(S(N)(=O)=O)cc3)C2(C)C)n1 [Example D5] | 100 to 500 | 420 |
| NS(=O)(=O)c1ccc([C@H]2C[C@@H]2c2cnc(-c3ccccc3)o2)cc1 [Example L2] | 500 to 5000 | 4800 |
| NS(=O)(=O)c1ccc([C@H]2C[C@@H]2c2nc(C3CCCCC3)no2)cc1 [Example B4] | 500 to 5000 |  |
| CC1(C)[C@H](c2ccc(S(N)(=O)=O)cc2)[C@H]1c1nc(C2CC2)c(C2CC2)o1 [Example 31, 4-[(1R,3R)-3-(4,5-Dicyclopropyl-1,3-oxazol-2-yl)-2,2-dimethylcyclopropyl]benzenesulfonamide] | 500 to 5000 | 2400 |
| CC1(C)[C@@H](c2ccc(S(N)(=O)=O)cc2)[C@@H]1c1noc(-c2cccc(F)c2)n1 [Example H5] | 500 to 5000 | 1500 |
